Results reported in patent US20210267240A1, “PHOTODETERIORATION INHIBITOR, BEVERAGE COMPRISING THE SAME, AND METHOD FOR INHIBITING PHOTODETERIORATION” (Mitsubishi Gas Chemical Company, Inc., priority 2018, published 2021).

Experiment: Light irradiation storage test of aqueous pyrroloquinoline quinone disodium salt solution in a transparent PET container, HPLC recovery
Assay type: physicochemical
Conditions: used alone, without combination partner
Experimental: HPLC conditions: Shimadzu LC-2010 Column: YMC-Pack ODS-A Detection wavelength: 259 nm Mobile phase: 30 mM acetic acid-70 mM ammonium acetate Column temperature: 40° C. Light irradiation apparatus: A plant incubator CLH-301 manufactured by Tomy Seiko Co., Ltd. Light irradiation conditions: 30° C. and 20,000Lx All the contents of Volvic that is a commercially available PET bottle beverage, were removed and the container was washed with water. This transparent container was used as a storage container. 5 to 500 mg of BioPQQ was dissolved in 500 g of water, and the relationship between the concentration and the photodeterioration of BioPQQ was examined. First, a mixture of pyrroloquinoline quinone disodium salt and water was added to the storage container, shaken well, and then submitted to ultrasonication for 1 minute to dissolve the salt. The pH was 3.5. The prepared aqueous solution of pyrroloquinoline quinone disodium salt was stored under the above light irradiation conditions. The concentration of pyrroloquinoline quinone was analyzed by HPLC 5 days after the light irradiation. […] 20 mg of BioPQQ was dissolved in 500 g of water ([…]) in the same manner as described above. To this aqueous solution, 100 mg of Red No. 2 was further added (Example A1). […]

In the case of O=C1O[C@H]([C@@H](O)CO)C(O)=C1O [ascorbic acid], the “photodeterioration inhibition effect (in words)” value was “has a photodeterioration inhibition effect”.
